Test [1] relates to streptozotocin induced diabetic mice. The test can be described thus: Antidiabetic activity in streptozotocin induced diabetic mice. The format is in vivo, Swiss albino mice. Also on record: key to % Reduction Cholesterol / % Reduction Triglycerides / % Reduction Glucose: NR=No Reduction. Particulars: 50 mg/kg oral, 7 days, plasma, compared to control group; for inhibition in vivo at 50 mg/kg: Mus musculus, 168 h. The protocol: Swiss albino mice of either sex were used in the study at the age of 10 weeks. Diabetes was induced in animals by injecting streptozotocin by i.p. route at a dose of 200 mg/kg body weight. 48 hours after streptozotocin administration, the animals were kept for fasting for 6 hours and blood was collected and plasma separated and glucose was estimated. Animals showing greater than 200 mg/dl glucose levels were considered as diabetic and these animals were randomly distributed into various groups. The compounds listed in the table 3 were administered at a dose of 50 mg/kg body weight by oral route for 7 days. Later animals were fasted for 6 hours and blood was collected and plasma separated. Biochemical estimations like glucose, cholesterol and triglycerides were carried out using the plasma. The effect of compounds mentioned in the table was expressed in terms of percentage reduction in biochemical values as compared to control group.

Another test concerns TNF-α. The test can be described thus: TNF-α inhibition in LPS-challenged human PBMC. The test is classed as cell-based. Particulars: for inhibition at 1 µM / inhibition at 10 µM: Homo sapiens, PBMC, LPS 100 ng/mL, 20 hours, read-out: % Inhibition TNF alpha. The protocol: (§1) Human PBMC cells were cultured and incubated with compounds listed in table-4 at 1 and 10 μM concentrations. Cells (1×10^6/mL) were challenged with lipopolysaccharides (LPS) at a concentration of (100 ng/mL) for 20 hours. Cell supernatant was analyzed for the presence of TNF-α, IL-1β and IL-6 cytokines by antibody directed enzyme-linked immunoassay.

In the next test the test system is IL-1β. The test can be described thus: IL-1β inhibition in LPS-challenged human PBMC. The format is cell-based. Particulars: for inhibition at 1 µM / inhibition at 10 µM: Homo sapiens, PBMC, LPS 100 ng/mL, 20 hours, read-out: % Inhibition IL1beta. How it is done: as §1
A further test addresses T1, DPP IV (Homo sapiens, UniProt P27487).
T1 construct: using human plasma as a source of DPP IV; from tissue; host or cells: human plasma
The test can be described thus: DPP IV assay (human plasma as source, H-gly-pro AMC substrate). The format is biochemical. Particulars: compared to vehicle control. The protocol:
DPP IV assay is carried by using human plasma as a source of DPP IV. The compounds were incubated at a concentration of 1 and 10 μM in assay buffer containing DPP IV enzyme. The compounds were incubated for 1 hr and then the substrate H-gly-pro AMC was added and further incubated for 20 min and then the reaction was stopped on addition of 25% glacial acetic acid. The plates were read in a spectrofluorimeter to get RFU on setting excitation wavelength of 360 nm and emission wavelength of 460 nm. Percentage inhibition is calculated as compared to vehicle control.

For another test, the system named is IL-6. The test can be described thus: IL-6 inhibition in LPS-challenged human PBMC. The format is cell-based. The following applies: for inhibition at 1 µM / inhibition at 10 µM: Homo sapiens, PBMC, LPS 100 ng/mL, 20 hours. The protocol: as §1
The mark [2] stands for this setting: read-out: % Reduction Triglycerides.
Setting [3] is: at tested concentrations, statement in words.

The structures appear in SMILES notation. Where two headings read alike, the source gives them in different places.

The text below walks through data of patent US20100305174A1, “Novel Heterocyclic Derivatives” (ORCHID RESEARCH LABORATORIES LIMITED, priority 2005, published 2010).

T1 sequence (P27487 39-766 limits assumed): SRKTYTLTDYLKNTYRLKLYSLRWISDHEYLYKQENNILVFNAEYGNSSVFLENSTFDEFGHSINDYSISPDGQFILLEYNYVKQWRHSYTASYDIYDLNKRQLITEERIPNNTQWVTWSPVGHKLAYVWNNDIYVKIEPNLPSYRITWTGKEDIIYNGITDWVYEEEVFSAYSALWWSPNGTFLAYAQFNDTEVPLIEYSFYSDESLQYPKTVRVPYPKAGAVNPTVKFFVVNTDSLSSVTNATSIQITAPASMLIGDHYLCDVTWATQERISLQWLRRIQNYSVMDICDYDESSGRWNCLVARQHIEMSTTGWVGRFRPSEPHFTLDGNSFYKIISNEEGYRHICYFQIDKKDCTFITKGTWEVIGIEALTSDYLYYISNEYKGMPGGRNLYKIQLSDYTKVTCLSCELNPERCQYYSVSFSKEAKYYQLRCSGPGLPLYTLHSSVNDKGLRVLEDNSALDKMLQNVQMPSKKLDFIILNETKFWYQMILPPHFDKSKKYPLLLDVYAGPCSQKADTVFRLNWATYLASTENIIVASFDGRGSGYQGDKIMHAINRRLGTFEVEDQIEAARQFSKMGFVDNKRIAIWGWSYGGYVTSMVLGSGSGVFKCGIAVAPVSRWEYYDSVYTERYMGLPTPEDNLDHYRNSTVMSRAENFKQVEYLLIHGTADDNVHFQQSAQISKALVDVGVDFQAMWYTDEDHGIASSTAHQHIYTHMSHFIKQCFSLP

`CCN1C(=O)OCC1Cc1ccc(Oc2ccc(/C=C3/SC(=O)NC3=O)cc2)cc1` (centres unmarked) [Example 3, 5-(4-{4-[(3-ethyl-2-oxo-1,3-oxazolidin-4-yl)methyl]phenoxy}benzylidene)-1,3-thiazolidine-2,4-dione]: in test [1], the “% Reduction Cholesterol” value is “NR” and the “% Reduction Glucose” value was “NR”. In addition, the inhibition in vivo at 50 mg/kg in test [1] (setting [2]) amounted to 3.8%.
Take `CN1C(=O)OCC1Cc1ccc(Oc2ccc(/C=C3\C(=O)Nc4ccccc43)cc2)cc1` (centres unmarked) [Example 4]: the inhibition at 1 µM is 8.77% with TNF-α and 1.55% with IL-1β. Further, the values for the inhibition at 10 µM in the test on TNF-α and with IL-1β were 2.85% and 10.7%, respectively.
Consider `CCN1C(=O)OCC1Cc1ccc(Oc2ccc(/C=C3\C(=O)Nc4ccccc43)cc2)cc1` (centres unmarked) [Example 5], for which, in the test on TNF-α, the inhibition at 1 µM stood at 1.72% and the inhibition at 10 µM came out at 9.77%.
As to `CN1C(=O)OCC1Cc1ccc(Oc2ccc(/C=C3/C(=O)Nc4ccccc43)cc2F)cc1` (centres unmarked) [Example 7], at DPP IV, the inhibition at 1 µM turned out to be 3.55% and the inhibition at 10 µM stood at 7.75%. For the same molecule, in the test with TNF-α, the inhibition at 1 µM amounted to 0.93% and the inhibition at 10 µM amounted to 6.43%.
For `CCN1C(=O)OCC1Cc1ccc(Oc2ccc(/C=C3\C(=O)Nc4ccccc43)cc2Cl)cc1` (centres unmarked) [Example 10], in the test with TNF-α, the inhibition at 1 µM was determined as 20.2% and the inhibition at 10 µM came out at 35%. In addition, in the test with IL-6, the inhibition at 1 µM worked out at 15.5% and the inhibition at 10 µM came to 7.18%.
For `CCN1C(=O)OCC1Cc1ccc(Oc2ccc(/C=C3\C(=O)Nc4ccccc43)cc2F)cc1` (centres unmarked) [Example 12], the inhibition at 1 µM in the test with TNF-α came to 13.6%; in the test with IL-6, 2.67%. The inhibition at 10 µM with TNF-α was 28.1%; in the test on IL-6, 1.65%.
In the case of `CCN1C(=O)OCC1Cc1ccc(Oc2ccc(/C=C3\C(=O)Nc4ccccc43)cc2C(F)(F)F)cc1` (centres unmarked) [Example 15], the inhibition at 1 µM at DPP IV was 7.07%; in the test on TNF-α, 24.5%; with IL-6 it was 1.16%; in the test with IL-1β, 1.78%. In addition, the inhibition at 10 µM at DPP IV was determined as 9.86%; in the test on TNF-α, 15.9%.
Turning to `CN1C(=O)OCC1Cc1ccc(Oc2ccc(/C=C3\C(=O)Nc4ccccc43)c(Cl)c2)cc1` (centres unmarked) [Example 16], the inhibition at 1 µM in the test with TNF-α amounted to 6.6%.
Take `O=C1NC(Cc2ccc(Oc3ccc(/C=C4/SC(=O)NC4=O)cc3F)cc2)CO1` (centres unmarked) [Example 31, 5-(3-fluoro-4-{4-[(2-oxo-1,3-oxazolidin-4-yl)methyl]phenoxy}benzylidene)-1,3-thiazolidine-2,4-dione]: on DPP IV, the inhibition at 1 µM amounted to 4.77% and the inhibition at 10 µM is 7.25%.
As for `CN1C(=O)OCC1Cc1ccc(Oc2ccc(/C=C3/SC(=S)NC3=O)cc2)cc1` (centres unmarked) [Example 34, 3-methyl-4-(4-{4-[(4-oxo-2-thioxo-1,3-thiazolidin-5-ylidene)methyl]phenoxy}benzyl)-1,3-oxazolidin-2-one], on DPP IV, the inhibition at 1 µM came to 9.52% and the inhibition at 10 µM is -0.7%. In addition, the “% Reduction Cholesterol” value in test [1] is on record as “NR”. Moreover, the inhibition in vivo at 50 mg/kg in test [1] (read-out: % Reduction Glucose) was found to be 50.9%. The inhibition in vivo at 50 mg/kg in test [1] (setting [2]) came to 73.4%.
`CCN1C(=O)OCC1Cc1ccc(Oc2ccc(/C=C3/SC(=S)N(CC(=O)O)C3=O)cc2)cc1` (centres unmarked) [Example 37]: in test [1], the “% Reduction Cholesterol” value was “NR” and the “% Reduction Triglycerides” value is “NR”. Further, the inhibition in vivo at 50 mg/kg in test [1] (read-out: % Reduction Glucose) was found to be 22.5%.
With `CN1C(=O)OCC1Cc1ccc(Oc2ccc(/C=C3/SC(=S)NC3=O)cc2Cl)cc1` (centres unmarked) [Example 40, 4-(4-{2-chloro-4-[(4-oxo-2-thioxo-1,3-thiazolidin-5-ylidene)methyl]phenoxy}benzyl)-3-methyl-1,3-oxazolidin-2-one], the “% Reduction Cholesterol” value in test [1] is listed as “NR”. Also, the values for the inhibition in vivo at 50 mg/kg in test [1] (read-out: % Reduction Glucose) and in test [1] (setting [2]) were 34.2% and 17.8%, respectively.
For `CN1C(=O)OCC1Cc1ccc(Oc2ccc(/C=C3/SC(=S)N(CC(=O)O)C3=O)cc2Cl)cc1` (centres unmarked) [Example 41, [4-oxo-5-(3-chloro-4-{4-[(3-methyl-2-oxo-1,3-oxazolidin-4-yl)methyl]phenoxy}benzylidene)-2-thioxo-1,3-thiazolidin-3-yl]acetic acid], in test [1], the “% Reduction Cholesterol” value is on record as “NR” and the “% Reduction Triglycerides” value is on record as “NR”. In addition, the inhibition in vivo at 50 mg/kg in test [1] (read-out: % Reduction Glucose) stood at 66.5%.
On to `CN1C(=O)OCC1Cc1ccc(Oc2ccc(/C=C3/SC(=S)NC3=O)cc2C(F)(F)F)cc1` (centres unmarked) [Example 55], for which, on DPP IV, the inhibition at 1 µM came to 1.99% and the inhibition at 10 µM is 9.92%.
In the case of `CCN1C(=O)OCC1Cc1ccc(Oc2ccc(/C=C3/SC(=S)NC3=O)cc2C(F)(F)F)cc1` (centres unmarked) [Example 59], on DPP IV, the inhibition at 1 µM was -1.26% and the inhibition at 10 µM came out at 12.4%.
In the case of `CCN1C(=O)OCC1Cc1ccc(Oc2ccc(CC3SC(=O)NC3=O)cc2)cc1` (centres unmarked) [Example 62, 5-(4-{4-[(3-ethyl-2-oxo-1,3-oxazolidin-4-yl)methyl]phenoxy}benzyl)-1,3-thiazolidine-2,4-dione], the “% Reduction Cholesterol” value in test [1] is recorded as “NR”. The inhibition in vivo at 50 mg/kg in test [1] (read-out: % Reduction Glucose) turned out to be 36.2%; in test [1] (setting [2]), 24.7%.
On to `CN1C(=O)OCC1Cc1ccc(Oc2ccc(CC3C(=O)Nc4ccccc43)cc2)cc1` (centres unmarked) [Example 64], for which, in the test on TNF-α, the inhibition at 1 µM worked out at 9.43% and the inhibition at 10 µM is 15.6%. In addition, in the test on IL-1β, the inhibition at 1 µM is 8.77% and the inhibition at 10 µM stood at 25.9%.
Consider `CCN1C(=O)OCC1Cc1ccc(Oc2ccc(CC3C(=O)Nc4ccccc43)cc2C(F)(F)F)cc1` (centres unmarked) [Example 65], for which, in the test with TNF-α, the inhibition at 1 µM came to 4.6% and the inhibition at 10 µM worked out at 1.67%.
Turning to `CCN1C(=O)OCC1Cc1ccc(Oc2ccc(CC3C(=O)Nc4ccccc43)cc2F)cc1` (centres unmarked) [Example 66], the inhibition at 1 µM in the test on IL-6 amounted to 3.58%.
Consider `COc1cc(CC2C(=O)Nc3ccccc32)ccc1Oc1ccc(CC2COC(=O)N2C)cc1` (centres unmarked) [Example 67], for which the inhibition at 1 µM in the test with TNF-α turned out to be 20.9%; in the test on IL-1β it was 12.1%. The figures for the inhibition at 10 µM in the test on TNF-α, in the test on IL-6 and in the test with IL-1β were 34%, 2.12% and 20.9%, respectively.
As to `CCN1C(=O)OCC1Cc1ccc(Oc2ccc(CC3C(=O)Nc4ccccc43)cc2OC)cc1` (centres unmarked) [Example 69], the values for the inhibition at 1 µM in the test on TNF-α, in the test on IL-6 and with IL-1β were 35.2%, 2.98% and 33.3%, respectively. For the same molecule, the inhibition at 10 µM in the test on TNF-α came to 50.6%; in the test with IL-6 it was 12.4%; with IL-1β, 39.7%. The “inhibition of TNF-α production” value in the test on TNF-α (setting [3]) is “can inhibit the production”. Besides, in the test on IL-6 (setting [3]), the “inhibition of IL-6 production” value is reported as “can inhibit the production”. In addition, the “inhibition of IL-1β production” value with IL-1β (setting [3]) is listed as “can inhibit the production”.
Consider `CN1C(=O)OCC1Cc1ccc(Oc2ccc(CC3SC(=O)NC3=O)cc2C(F)(F)F)cc1` (centres unmarked) [Example 71, 4-{4-[(3-methyl-2-oxo-1,3-oxazolidin-4-yl)methyl]phenoxy)-3-(trifluoromethylbenzyl]-1,3-thiazolidine-2,4-dione], for which, in test [1], the “% Reduction Cholesterol” value was “NR” and the “% Reduction Triglycerides” value was “NR”. Further, the inhibition in vivo at 50 mg/kg in test [1] (read-out: % Reduction Glucose) was 49.9%.
With `CN1C(=O)OCC1Cc1ccc(Oc2ccc(CC3C(=O)Nc4ccccc43)cc2C(F)(F)F)cc1` (centres unmarked) [Example 75], at DPP IV, the inhibition at 1 µM stood at 2.44% and the inhibition at 10 µM was determined as 7.64%.
With `CN1C(=O)OCC1Cc1ccc(Oc2ccc(CC3SC(=S)N(CC(=O)O)C3=O)cc2C(F)(F)F)cc1` (centres unmarked) [Example 86], in test [1], the “% Reduction Cholesterol” value was “NR”. Besides, the inhibition in vivo at 50 mg/kg was 48.8% in test [1] (read-out: % Reduction Glucose) and 15.5% in test [1] (setting [2]).

A word on the inhibition: it is the change of the read-out against control, counted positive when it falls.
